Patent publication US3954865A, “N-cycloalkyl substituted-10,11-dihydro 5H-dibenzo[a,d] cyclohepten-5-imines” (E. I. Du Pont de Nemours and Company, priority 1974, dated 1976)

What was measured:
[1] = test system: uptake of dopamine by the corpus striatum; assay: inhibition of uptake of labelled dopamine by rat corpus striatum homogenate (procedure of Coyle et al); assay type: biochemical; conditions: for Ratio Hypothalmus/Striatum: ratio of ID50 values, hypothalamus over striatum
Description: (§1) Many compounds which are active in the central nervous system of mammals appear to inhibit the uptake of catecholamines by mammalian brain tissues. […] The compounds of the invention have the ability of selectively inhibiting the uptake of dopamine by the corpus striatum. This ability was measured by a test procedure following that of Coyle et al supra. Rat brain slices from the corpus striatum and hypothalamus are separately homogenized and incubated with predetermined amounts of labelled norepinephrine or dopamine and a compound of the invention. After a suitable incubation period the amount of labelled catecholamine taken up by the brain homogenate is determined.

[2] = test system: uptake of norepinephrine by the hypothalamus; assay: inhibition of uptake of labelled norepinephrine by rat hypothalamus homogenate (procedure of Coyle et al); assay type: biochemical
Description: as §1

| SMILES | Ratio Hypothalmus/Striatum [1] | inhibiting the uptake of dopamine, selectivity in words ([1]; dopamine versus norepinephrine uptake) | inhibiting the uptake of norepinephrine, in words [2] |
| --- | --- | --- | --- |
| c1ccc2c(c1)CCc1ccccc1C2=NC1CC1 [Example 2, N-Cyclopropyl-10,11-dihydro-5H-dibenzo[a,d]cyclohepten-5-imine] | > 6 |  |  |
| CC(C)N=C1c2ccccc2CCc2ccccc21 [Isopropyl, reference compound] | 0.25 |  |  |
| c1ccc2c(c1)CCc1ccccc1C2=NCC1CC1 [Example 1, N-cyclopropylmethyl-10,11-dihydro-5H-dibenzo[a,d]cyclohepten-5-imine] | 20 | almost exclusive effect inhibiting the uptake of dopamine | without significantly inhibiting the uptake of norepinephrine |
| CC(C)=C1CC(CN=C2c3ccccc3CCc3ccccc32)C1 (stereo not shown) [Example 5, N-(3-Isopropylidenecyclobutylmethyl)-10,11-dihydro[a,d]cyclohepten-5-imine] | 1.25 |  |  |
| Clc1ccc2c(c1)C(=NCC1CC1)c1ccccc1CC2 [Example 4, 3-Chloro-N-cyclopropylmethyl-10,11-dihydro-5H-dibenzocyclohepten-5-imine] | 2 |  |  |
